Like-named read-outs stand apart in the source and are kept apart here.
How the values were obtained:
Experiment in all cases: KiNativ assay
Format in all cases: binding
TYK2 domain2 = TYK2 domain2 (Homo sapiens (Human), UniProt P29597); settings: H929 live cell
Procedure: (§1) Biochemical IC50s of the compounds of the present disclosure against various kinases were measured in a KiNativ assay. Compounds were screened in duplicate at 10 μM in H929 live cell. IC50 was measured via Mass spectroscopy (MS).

FER = FER (Homo sapiens (Human), UniProt P16591); settings: H929 live cell
Procedure: as §1

KSR1, KSR2 = settings: H929 live cell
Procedure: as §1

p70S6Kb = p70S6Kb (Homo sapiens (Human), UniProt Q9UBS0); settings: H929 live cell
p70S6Kb, sequence (Q9UBS0 whole entry): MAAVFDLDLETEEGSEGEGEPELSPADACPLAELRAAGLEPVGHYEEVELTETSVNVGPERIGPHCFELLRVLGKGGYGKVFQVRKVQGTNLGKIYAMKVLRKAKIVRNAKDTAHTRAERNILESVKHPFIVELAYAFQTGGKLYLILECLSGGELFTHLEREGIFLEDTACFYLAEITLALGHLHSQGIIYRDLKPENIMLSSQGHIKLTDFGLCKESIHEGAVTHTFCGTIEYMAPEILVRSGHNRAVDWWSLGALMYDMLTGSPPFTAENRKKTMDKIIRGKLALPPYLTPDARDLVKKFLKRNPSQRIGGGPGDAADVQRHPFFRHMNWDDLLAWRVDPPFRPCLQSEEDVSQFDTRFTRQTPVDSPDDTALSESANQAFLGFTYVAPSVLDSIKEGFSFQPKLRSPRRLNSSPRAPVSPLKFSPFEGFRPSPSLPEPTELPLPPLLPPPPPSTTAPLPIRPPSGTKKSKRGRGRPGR
Procedure: as §1

GSK3B = GSK3B (Homo sapiens (Human), UniProt P49841); settings: H929 live cell
Procedure: as §1

eEF2K = eEF2K (Homo sapiens (Human), UniProt O00418); settings: H929 live cell
Procedure: as §1

JAK1 domain2 = JAK1 domain2 (Homo sapiens (Human), UniProt P23458); settings: H929 live cell
Procedure: as §1

PI4KB = PI4KB (Homo sapiens (Human), UniProt Q9UBF8); settings: H929 live cell
Procedure: as §1

NEK8 = NEK8 (Homo sapiens (Human), UniProt Q86SG6); settings: H929 live cell
Procedure: as §1

MAP3K4 = MAP3K4 (Homo sapiens (Human), UniProt Q9Y6R4); settings: H929 live cell
Procedure: as §1

AKT1 = AKT1 (Homo sapiens (Human), UniProt P31749); settings: H929 live cell
Procedure: as §1

JAK3 domain2 = JAK3 domain2 (Homo sapiens (Human), UniProt P52333); settings: H929 live cell
JAK3 domain2, sequence (P52333 whole entry, the tested form may be a part): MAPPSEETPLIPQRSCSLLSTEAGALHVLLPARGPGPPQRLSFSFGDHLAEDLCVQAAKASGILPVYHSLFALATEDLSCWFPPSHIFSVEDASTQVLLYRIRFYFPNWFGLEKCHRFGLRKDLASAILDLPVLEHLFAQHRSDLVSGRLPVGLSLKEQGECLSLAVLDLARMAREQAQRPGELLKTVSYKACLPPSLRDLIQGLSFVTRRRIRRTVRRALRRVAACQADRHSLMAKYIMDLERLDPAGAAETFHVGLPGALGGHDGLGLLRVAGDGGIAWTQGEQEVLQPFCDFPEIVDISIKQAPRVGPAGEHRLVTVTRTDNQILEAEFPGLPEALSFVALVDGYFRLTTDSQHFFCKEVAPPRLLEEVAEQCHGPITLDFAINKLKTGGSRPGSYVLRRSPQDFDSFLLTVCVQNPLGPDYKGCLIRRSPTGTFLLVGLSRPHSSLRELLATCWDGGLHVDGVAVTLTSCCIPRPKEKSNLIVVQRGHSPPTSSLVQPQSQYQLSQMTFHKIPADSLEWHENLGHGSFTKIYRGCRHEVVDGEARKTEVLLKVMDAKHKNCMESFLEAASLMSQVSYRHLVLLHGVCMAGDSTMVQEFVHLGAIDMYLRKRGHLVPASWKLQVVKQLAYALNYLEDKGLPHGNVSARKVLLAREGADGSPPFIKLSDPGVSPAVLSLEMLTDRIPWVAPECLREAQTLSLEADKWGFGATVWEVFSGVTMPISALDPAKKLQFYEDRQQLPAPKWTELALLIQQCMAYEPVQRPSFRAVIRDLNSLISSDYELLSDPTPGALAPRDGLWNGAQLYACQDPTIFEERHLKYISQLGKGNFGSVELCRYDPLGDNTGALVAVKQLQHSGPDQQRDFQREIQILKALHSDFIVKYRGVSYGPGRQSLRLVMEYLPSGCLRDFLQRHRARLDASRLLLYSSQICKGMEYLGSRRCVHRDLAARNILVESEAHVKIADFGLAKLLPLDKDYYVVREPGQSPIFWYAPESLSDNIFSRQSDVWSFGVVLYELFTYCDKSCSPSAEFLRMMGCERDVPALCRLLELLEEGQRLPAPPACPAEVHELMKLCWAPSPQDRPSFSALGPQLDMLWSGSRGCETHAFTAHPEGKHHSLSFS
Procedure: as §1

PKCz = PKCz (Homo sapiens (Human), UniProt Q05513); settings: H929 live cell
Procedure: as §1

DGKH = DGKH (Homo sapiens (Human), UniProt Q86XP1); settings: H929 live cell, read-out: inhibition (10 μM)
Procedure: as §1

MST2 = MST2 (Homo sapiens (Human), UniProt Q13188); settings: H929 live cell
Procedure: as §1

AurB = AurB (Homo sapiens (Human), UniProt Q96GD4); settings: H929 live cell
AurB, sequence (Q96GD4 whole entry): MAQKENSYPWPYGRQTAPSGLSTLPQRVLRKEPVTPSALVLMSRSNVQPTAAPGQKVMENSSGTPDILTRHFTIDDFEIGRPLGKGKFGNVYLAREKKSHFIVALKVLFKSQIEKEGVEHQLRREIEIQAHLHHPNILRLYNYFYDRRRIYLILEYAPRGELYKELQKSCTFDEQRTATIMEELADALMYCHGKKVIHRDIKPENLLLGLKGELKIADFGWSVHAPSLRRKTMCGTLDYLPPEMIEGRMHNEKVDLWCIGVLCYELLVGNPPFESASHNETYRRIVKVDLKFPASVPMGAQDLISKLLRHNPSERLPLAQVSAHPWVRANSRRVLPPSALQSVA
Procedure: as §1

PKD3 = PKD3 (Homo sapiens (Human), UniProt O94806); settings: H929 live cell
Procedure: as §1

CaMKK2 = CaMKK2 (Homo sapiens (Human), UniProt Q96RR4); settings: H929 live cell
Procedure: as §1

PIK3C3 = PIK3C3 (Homo sapiens (Human), UniProt Q8NEB9); settings: H929 live cell, read-out: inhibition (10 μM)
Procedure: as §1

MARK3 = MARK3 (Homo sapiens (Human), UniProt P27448); settings: H929 live cell
Procedure: as §1

CK1g2 = CK1g2 (Homo sapiens (Human), UniProt P78368); settings: H929 live cell
CK1g2, sequence (P78368 whole entry): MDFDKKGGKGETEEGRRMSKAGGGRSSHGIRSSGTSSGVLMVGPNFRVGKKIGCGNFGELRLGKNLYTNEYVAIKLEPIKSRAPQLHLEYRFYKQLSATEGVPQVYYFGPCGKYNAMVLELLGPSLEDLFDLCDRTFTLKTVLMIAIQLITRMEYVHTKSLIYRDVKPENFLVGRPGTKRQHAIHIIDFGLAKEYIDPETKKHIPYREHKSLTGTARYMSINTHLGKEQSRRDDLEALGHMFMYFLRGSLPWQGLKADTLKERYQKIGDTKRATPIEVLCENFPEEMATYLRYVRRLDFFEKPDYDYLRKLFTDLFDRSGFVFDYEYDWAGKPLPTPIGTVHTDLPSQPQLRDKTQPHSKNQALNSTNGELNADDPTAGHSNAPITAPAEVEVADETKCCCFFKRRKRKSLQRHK
Procedure: as §1

MAP3K5 = MAP3K5 (Homo sapiens (Human), UniProt Q99683); settings: H929 live cell
Procedure: as §1

PLK1 = PLK1 (Homo sapiens (Human), UniProt P53350); settings: H929 live cell
Procedure: as §1

HPK1 = HPK1 (Homo sapiens (Human), UniProt Q92918); settings: H929 live cell
Procedure: as §1

IKKa = IKKa (Homo sapiens (Human), UniProt O15111); settings: H929 live cell
IKKa, sequence (O15111 whole entry): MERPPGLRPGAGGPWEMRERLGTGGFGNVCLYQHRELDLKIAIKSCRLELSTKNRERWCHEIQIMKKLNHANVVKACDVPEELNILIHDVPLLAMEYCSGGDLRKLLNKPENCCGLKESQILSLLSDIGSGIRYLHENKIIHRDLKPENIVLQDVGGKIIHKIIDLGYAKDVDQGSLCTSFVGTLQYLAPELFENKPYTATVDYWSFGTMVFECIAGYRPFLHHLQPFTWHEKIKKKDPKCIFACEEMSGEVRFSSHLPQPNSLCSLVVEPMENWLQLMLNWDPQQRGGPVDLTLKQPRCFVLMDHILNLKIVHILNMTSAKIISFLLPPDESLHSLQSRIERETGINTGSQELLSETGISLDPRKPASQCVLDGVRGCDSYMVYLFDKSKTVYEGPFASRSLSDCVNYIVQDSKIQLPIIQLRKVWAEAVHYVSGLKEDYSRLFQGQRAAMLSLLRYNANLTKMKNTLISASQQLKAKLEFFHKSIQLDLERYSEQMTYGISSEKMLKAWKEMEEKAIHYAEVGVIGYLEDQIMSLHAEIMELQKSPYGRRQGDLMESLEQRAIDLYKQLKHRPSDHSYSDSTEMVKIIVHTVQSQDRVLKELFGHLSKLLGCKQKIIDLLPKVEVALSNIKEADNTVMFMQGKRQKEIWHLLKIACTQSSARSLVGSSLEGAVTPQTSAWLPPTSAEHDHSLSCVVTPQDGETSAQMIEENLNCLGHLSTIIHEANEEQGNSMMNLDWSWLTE
Procedure: as §1

CaMK2g = CaMK2g (Homo sapiens (Human), UniProt Q13555); settings: H929 live cell
Procedure: as §1

NEK7 = NEK7 (Homo sapiens (Human), UniProt Q8TDX7); settings: H929 live cell
Procedure: as §1

NEK1 = NEK1 (Homo sapiens (Human), UniProt Q96PY6); settings: H929 live cell
Procedure: as §1

IRE1 = IRE1 (Homo sapiens (Human), UniProt O75460); settings: H929 live cell
Procedure: as §1

AMPKa1, AMPKa2 = settings: H929 live cell
Procedure: as §1

OSR1 = OSR1 (Homo sapiens (Human), UniProt O95747); settings: H929 live cell
Procedure: as §1

PIK3CB = PIK3CB (Homo sapiens (Human), UniProt P42338); settings: H929 live cell
PIK3CB, sequence (P42338 whole entry): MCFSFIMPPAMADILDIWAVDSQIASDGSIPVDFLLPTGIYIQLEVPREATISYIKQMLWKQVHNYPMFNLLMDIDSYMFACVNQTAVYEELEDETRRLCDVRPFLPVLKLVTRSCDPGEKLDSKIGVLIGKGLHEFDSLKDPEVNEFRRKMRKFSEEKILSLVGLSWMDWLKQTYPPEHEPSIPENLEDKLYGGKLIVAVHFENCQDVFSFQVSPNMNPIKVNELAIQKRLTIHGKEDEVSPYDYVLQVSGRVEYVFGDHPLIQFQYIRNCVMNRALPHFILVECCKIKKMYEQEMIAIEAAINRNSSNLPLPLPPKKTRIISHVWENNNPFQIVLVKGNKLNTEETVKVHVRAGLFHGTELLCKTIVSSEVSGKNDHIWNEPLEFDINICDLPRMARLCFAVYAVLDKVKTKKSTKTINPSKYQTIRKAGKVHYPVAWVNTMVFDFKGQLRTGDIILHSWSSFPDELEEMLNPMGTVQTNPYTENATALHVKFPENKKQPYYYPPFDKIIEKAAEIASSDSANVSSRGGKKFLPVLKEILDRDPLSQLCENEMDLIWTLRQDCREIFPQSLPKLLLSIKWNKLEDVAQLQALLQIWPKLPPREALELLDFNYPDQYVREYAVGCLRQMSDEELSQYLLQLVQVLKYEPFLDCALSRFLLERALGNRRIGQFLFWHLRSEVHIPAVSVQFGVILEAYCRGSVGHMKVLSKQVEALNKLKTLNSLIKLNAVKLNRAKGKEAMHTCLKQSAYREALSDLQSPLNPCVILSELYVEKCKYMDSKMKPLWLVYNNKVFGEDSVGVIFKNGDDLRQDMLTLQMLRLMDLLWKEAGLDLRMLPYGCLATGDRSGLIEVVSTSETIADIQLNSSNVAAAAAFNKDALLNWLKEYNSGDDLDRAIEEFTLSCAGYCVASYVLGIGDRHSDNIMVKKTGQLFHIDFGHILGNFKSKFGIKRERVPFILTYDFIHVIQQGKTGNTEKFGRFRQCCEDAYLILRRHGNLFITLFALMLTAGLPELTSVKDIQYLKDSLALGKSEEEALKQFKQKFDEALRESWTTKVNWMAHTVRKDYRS
PIK3CB, sequence (P27986 whole entry partner): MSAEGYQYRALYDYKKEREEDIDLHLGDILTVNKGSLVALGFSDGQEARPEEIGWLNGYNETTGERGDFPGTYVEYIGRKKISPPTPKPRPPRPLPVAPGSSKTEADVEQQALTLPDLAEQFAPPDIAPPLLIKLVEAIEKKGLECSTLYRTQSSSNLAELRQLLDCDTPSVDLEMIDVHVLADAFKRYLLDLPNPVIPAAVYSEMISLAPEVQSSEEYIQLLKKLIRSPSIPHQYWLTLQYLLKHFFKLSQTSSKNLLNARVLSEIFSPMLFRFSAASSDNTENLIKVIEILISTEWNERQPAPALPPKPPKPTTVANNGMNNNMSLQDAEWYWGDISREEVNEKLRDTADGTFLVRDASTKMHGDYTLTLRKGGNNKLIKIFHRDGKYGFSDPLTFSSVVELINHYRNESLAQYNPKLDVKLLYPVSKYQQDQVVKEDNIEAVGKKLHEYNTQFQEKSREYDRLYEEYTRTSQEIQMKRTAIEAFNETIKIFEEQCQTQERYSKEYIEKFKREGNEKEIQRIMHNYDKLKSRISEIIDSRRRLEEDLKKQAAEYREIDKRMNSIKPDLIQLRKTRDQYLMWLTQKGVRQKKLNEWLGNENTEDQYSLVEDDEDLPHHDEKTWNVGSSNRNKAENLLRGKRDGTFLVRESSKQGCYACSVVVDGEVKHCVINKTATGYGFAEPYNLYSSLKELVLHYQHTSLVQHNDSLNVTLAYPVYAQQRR
Procedure: as §1

STLK3 = STLK3 (Homo sapiens (Human), UniProt Q9UEW8); settings: H929 live cell
Procedure: as §1

**Q.** How did the inhibition at 10 µM (TYK2 domain2; read-out: % inhibition (range)) turn out when `Nc1ncc(-c2cccc([N+](=O)[O-])c2F)cc1-c1ccc2c(c1)CCNC2=O` [Compound I-9, 6-(2-amino-5-(2-fluoro-3-nitrophenyl)pyridin-3-yl)-3,4-dihydroisoquinolin-1(2H)-one] was run?
**A.** 0%

**Q.** What about the inhibition at 10 µM (TYK2 domain2; read-out: inhibition (10 μM)) of the same compound?
**A.** 29.9%

**Q.** And the inhibition at 10 µM (FER; read-out: % inhibition (range))?
**A.** 0%

**Q.** What about the inhibition at 10 µM (FER; read-out: inhibition (10 μM)) of the same compound?
**A.** 27.4%

**Q.** What about the “% inhibition (range)” value (KSR1, KSR2; 10 μM) of the same compound?
**A.** 0.0%

**Q.** What about the “inhibition (10 μM)” value (KSR1, KSR2) of the same compound?
**A.** −51.3%

**Q.** What about the inhibition at 10 µM (p70S6Kb; read-out: % inhibition (range)) of the same compound?
**A.** 0%

**Q.** What about the inhibition at 10 µM (p70S6Kb; read-out: inhibition (10 μM)) of the same compound?
**A.** -84.5%

**Q.** And the inhibition at 10 µM (GSK3B; read-out: % inhibition (range))?
**A.** > 90%

**Q.** And the inhibition at 10 µM (GSK3B; read-out: inhibition (10 μM))?
**A.** 97.2%

**Q.** What about the inhibition at 10 µM (eEF2K; read-out: % inhibition (range)) of the same compound?
**A.** 0%

**Q.** And the inhibition at 10 µM (eEF2K; read-out: inhibition (10 μM))?
**A.** -94.7%

**Q.** And the inhibition at 10 µM (JAK1 domain2; read-out: % inhibition (range))?
**A.** 0%

**Q.** And the inhibition at 10 µM (JAK1 domain2; read-out: inhibition (10 μM))?
**A.** -4.9%

**Q.** What about the inhibition at 10 µM (PI4KB; read-out: % inhibition (range)) of the same compound?
**A.** 0%

**Q.** And the inhibition at 10 µM (PI4KB; read-out: inhibition (10 μM))?
**A.** -13.8%

**Q.** And the inhibition at 10 µM (NEK8; read-out: % inhibition (range))?
**A.** 0%

**Q.** What about the inhibition at 10 µM (NEK8; read-out: inhibition (10 μM)) of the same compound?
**A.** 11.6%

**Q.** And the inhibition at 10 µM (MAP3K4; read-out: % inhibition (range))?
**A.** 0%

**Q.** And the inhibition at 10 µM (MAP3K4; read-out: inhibition (10 μM))?
**A.** -9.6%

**Q.** What about the inhibition at 10 µM (AKT1; read-out: % inhibition (range)) of the same compound?
**A.** 0%

**Q.** What about the inhibition at 10 µM (AKT1; read-out: inhibition (10 μM)) of the same compound?
**A.** 32.8%

**Q.** What about the inhibition at 10 µM (JAK3 domain2; read-out: % inhibition (range)) of the same compound?
**A.** 0%

**Q.** And the inhibition at 10 µM (JAK3 domain2; read-out: inhibition (10 μM))?
**A.** 2.6%

**Q.** What about the inhibition at 10 µM (PKCz; read-out: % inhibition (range)) of the same compound?
**A.** 0%

**Q.** And the inhibition at 10 µM (PKCz; read-out: inhibition (10 μM))?
**A.** 27%

**Q.** And the inhibition at 10 µM (DGKH)?
**A.** 44.2%

**Q.** What about the inhibition at 10 µM (MST2; read-out: % inhibition (range)) of the same compound?
**A.** 75 to 90%

**Q.** And the inhibition at 10 µM (MST2; read-out: inhibition (10 μM))?
**A.** 88.9%

**Q.** And the inhibition at 10 µM (AurB; read-out: % inhibition (range))?
**A.** 50 to 75%

**Q.** And the inhibition at 10 µM (AurB; read-out: inhibition (10 μM))?
**A.** 53.4%

**Q.** What about the inhibition at 10 µM (PKD3; read-out: % inhibition (range)) of the same compound?
**A.** 50 to 75%

**Q.** And the inhibition at 10 µM (PKD3; read-out: inhibition (10 μM))?
**A.** 74.2%

**Q.** What about the inhibition at 10 µM (CaMKK2; read-out: % inhibition (range)) of the same compound?
**A.** 50 to 75%

**Q.** What about the inhibition at 10 µM (CaMKK2; read-out: inhibition (10 μM)) of the same compound?
**A.** 71.8%

**Q.** What about the inhibition at 10 µM (PIK3C3) of the same compound?
**A.** 51.2%

**Q.** And the inhibition at 10 µM (MARK3; read-out: % inhibition (range))?
**A.** 75 to 90%

**Q.** And the inhibition at 10 µM (MARK3; read-out: inhibition (10 μM))?
**A.** 78.3%

**Q.** What about the inhibition at 10 µM (CK1g2; read-out: % inhibition (range)) of the same compound?
**A.** > 90%

**Q.** What about the inhibition at 10 µM (CK1g2; read-out: inhibition (10 μM)) of the same compound?
**A.** > 90%

**Q.** What about the inhibition at 10 µM (MAP3K5; read-out: % inhibition (range)) of the same compound?
**A.** 0%

**Q.** What about the inhibition at 10 µM (MAP3K5; read-out: inhibition (10 μM)) of the same compound?
**A.** 30.6%

**Q.** What about the inhibition at 10 µM (PLK1; read-out: % inhibition (range)) of the same compound?
**A.** 0%

**Q.** What about the inhibition at 10 µM (PLK1; read-out: inhibition (10 μM)) of the same compound?
**A.** 14.2%

**Q.** What about the inhibition at 10 µM (HPK1; read-out: % inhibition (range)) of the same compound?
**A.** > 90%

**Q.** What about the inhibition at 10 µM (HPK1; read-out: inhibition (10 μM)) of the same compound?
**A.** 97.5%

**Q.** What about the inhibition at 10 µM (IKKa; read-out: % inhibition (range)) of the same compound?
**A.** 0%

**Q.** And the inhibition at 10 µM (IKKa; read-out: inhibition (10 μM))?
**A.** -18.4%

**Q.** What about the inhibition at 10 µM (CaMK2g; read-out: % inhibition (range)) of the same compound?
**A.** 0%

**Q.** And the inhibition at 10 µM (CaMK2g; read-out: inhibition (10 μM))?
**A.** -23%

**Q.** And the inhibition at 10 µM (NEK7; read-out: % inhibition (range))?
**A.** 0%

**Q.** And the inhibition at 10 µM (NEK7; read-out: inhibition (10 μM))?
**A.** -39.5%

**Q.** And the inhibition at 10 µM (NEK1; read-out: % inhibition (range))?
**A.** 0%

**Q.** And the inhibition at 10 µM (NEK1; read-out: inhibition (10 μM))?
**A.** -34%

**Q.** What about the inhibition at 10 µM (IRE1; read-out: % inhibition (range)) of the same compound?
**A.** 0%

**Q.** And the inhibition at 10 µM (IRE1; read-out: inhibition (10 μM))?
**A.** -50.1%

**Q.** What about the “% inhibition (range)” value (AMPKa1, AMPKa2; 10 μM) of the same compound?
**A.** 50-75%

**Q.** What about the “inhibition (10 μM)” value (AMPKa1, AMPKa2) of the same compound?
**A.** 52.0%

**Q.** What about the inhibition at 10 µM (OSR1; read-out: % inhibition (range)) of the same compound?
**A.** 0%

**Q.** And the inhibition at 10 µM (OSR1; read-out: inhibition (10 μM))?
**A.** -11.8%

**Q.** What about the inhibition at 10 µM (PIK3CB; read-out: % inhibition (range)) of the same compound?
**A.** 0%

**Q.** What about the inhibition at 10 µM (PIK3CB; read-out: inhibition (10 μM)) of the same compound?
**A.** 14.6%

**Q.** And the inhibition at 10 µM (STLK3; read-out: % inhibition (range))?
**A.** 0%

**Q.** What about the inhibition at 10 µM (STLK3; read-out: inhibition (10 μM)) of the same compound?
**A.** -22.9%

From patent publication US10710978B2, “STK4 inhibitors for treatment of hematologic malignancies” (Dana-Farber Cancer Institute, Inc., priority 2015, dated 2020)
